Columns and labels:
Experiment in all cases: relative viability (nuclei count vs DMSO), 5 days (fraction); higher = more cells survive
HCC-15 = tested on: HCC-15
Procedure, shortened: (§1)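 Lung cancer cell lines were seeded in 1536-well plates and dosed by pin tool the next day, with either a single drug or a fixed anchor-drug dose combined with five library-drug doses (not always all listed) spaced in √10 steps. Five days later, one step fixed the cells and stained their nuclei (final 0.05% Triton X-100, 1% formaldehyde, 1 ug/ml Hoechst), and nuclei were counted on 4× images. Relative viability is the nuclei count in treated wells divided by the count in vehicle wells, and each value is the median of duplicate plates.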

NCI-H2170 = tested on: NCI-H2170
Procedure, shortened: as §1

NCI-H1734 = tested on: NCI-H1734
Procedure, shortened: as §1

EPLC-272H = tested on: EPLC-272H
Procedure, shortened: as §1

NCI-H441 = tested on: NCI-H441
Procedure, shortened: as §1

NCI-H647 = tested on: NCI-H647
Procedure, shortened: as §1

NCI-H2023 = tested on: NCI-H2023
Procedure, shortened: as §1

NCI-H1563 = tested on: NCI-H1563
Procedure, shortened: as §1

LOU-NH91 = tested on: LOU-NH91
Procedure, shortened: as §1

NCI-H3122 = tested on: NCI-H3122
Procedure, shortened: as §1

NCI-H520 = tested on: NCI-H520
Procedure, shortened: as §1

UMC-11 = tested on: UMC-11
Procedure, shortened: as §1

NCI-H1793 = tested on: NCI-H1793
Procedure, shortened: as §1

NCI-H322M = tested on: NCI-H322M
Procedure, shortened: as §1

NCI-H2405 = tested on: NCI-H2405
Procedure, shortened: as §1

NCI-H1650 = tested on: NCI-H1650
Procedure, shortened: as §1

PC-14 = tested on: PC-14
Procedure, shortened: as §1

H3255 = tested on: H3255
Procedure, shortened: as §1

SW 900 = tested on: SW 900
Procedure, shortened: as §1

NCI-H2347 = tested on: NCI-H2347
Procedure, shortened: as §1

201T = tested on: 201T
Procedure, shortened: as §1

COR-L23 = tested on: COR-L23
Procedure, shortened: as §1

For `COc1cc2nccc(Oc3ccc(NC(=O)Nc4cc(C)on4)c(Cl)c3)c2cc1OC` [Tivozanib] + Nc1nc2[nH]cc(CCc3ccc(C(=O)N[C@@H](CCC(=O)O)C(=O)O)cc3)c2c(=O)[nH]1 [Pemetrexed] (partner 0.2 µM), the relative viability (HCC-15; first compound 0.005 µM) was 0.21, the relative viability (HCC-15; first compound 0.01581 µM) was 0.224 and the relative viability (HCC-15; first compound 0.05 µM) was 0.235. The relative viability (HCC-15; first compound 0.1581 µM) was 0.226, the relative viability (HCC-15; first compound 0.5 µM) was 0.238 and the relative viability (NCI-H2170; first compound 0.005 µM) was 0.24. It also gave a relative viability (NCI-H2170; first compound 0.01581 µM) of 0.262, a relative viability (NCI-H2170; first compound 0.05 µM) of 0.56 and a relative viability (NCI-H2170; first compound 0.5 µM) of 0.255. The relative viability (NCI-H1734; first compound 0.005 µM) was 0.426, the relative viability (NCI-H1734; first compound 0.01581 µM) was 0.39 and the relative viability (NCI-H1734; first compound 0.05 µM) was 0.404. For the same compound, the relative viability (NCI-H1734; first compound 0.1581 µM) was 0.402, the relative viability (NCI-H1734; first compound 0.5 µM) was 0.404 and the relative viability (EPLC-272H; first compound 0.005 µM) was 0.337. It also gave a relative viability (EPLC-272H; first compound 0.01581 µM) of 0.317, a relative viability (EPLC-272H; first compound 0.05 µM) of 0.335 and a relative viability (EPLC-272H; first compound 0.1581 µM) of 0.284. The relative viability (EPLC-272H; first compound 0.5 µM) was 0.288, the relative viability (NCI-H441; first compound 0.005 µM) was 0.245 and the relative viability (NCI-H441; first compound 0.01581 µM) was 0.296. It also gave a relative viability (NCI-H441; first compound 0.05 µM) of 0.246, a relative viability (NCI-H441; first compound 0.1581 µM) of 0.249 and a relative viability (NCI-H441; first compound 0.5 µM) of 0.239. It also gave a relative viability (NCI-H647; first compound 0.005 µM) of 0.155, a relative viability (NCI-H647; first compound 0.01581 µM) of 0.207 and a relative viability (NCI-H647; first compound 0.05 µM) of 0.152. The relative viability (NCI-H647; first compound 0.1581 µM) was 0.189, the relative viability (NCI-H647; first compound 0.5 µM) was 0.149 and the relative viability (NCI-H2023; first compound 0.005 µM) was 0.405. For the same compound, the relative viability (NCI-H2023; first compound 0.01581 µM) was 0.216, the relative viability (NCI-H2023; first compound 0.05 µM) was 0.255 and the relative viability (NCI-H2023; first compound 0.1581 µM) was 0.224. It also gave a relative viability (NCI-H2023; first compound 0.5 µM) of 0.211, a relative viability (NCI-H1563; first compound 0.005 µM) of 0.657 and a relative viability (NCI-H1563; first compound 0.01581 µM) of 0.887. The relative viability (NCI-H1563; first compound 0.05 µM) was 0.698, the relative viability (NCI-H1563; first compound 0.1581 µM) was 0.594 and the relative viability (NCI-H1563; first compound 0.5 µM) was 0.728. For the same compound, the relative viability (LOU-NH91; first compound 0.005 µM) was 0.341, the relative viability (LOU-NH91; first compound 0.01581 µM) was 0.364 and the relative viability (LOU-NH91; first compound 0.05 µM) was 0.371. The relative viability (LOU-NH91; first compound 0.1581 µM) was 0.525, the relative viability (LOU-NH91; first compound 0.5 µM) was 0.338 and the relative viability (NCI-H3122; first compound 0.005 µM) was 0.197. For the same compound, the relative viability (NCI-H3122; first compound 0.01581 µM) was 0.222, the relative viability (NCI-H3122; first compound 0.05 µM) was 0.198 and the relative viability (NCI-H3122; first compound 0.1581 µM) was 0.204. It also gave a relative viability (NCI-H3122; first compound 0.5 µM) of 0.19, a relative viability (NCI-H520; first compound 0.005 µM) of 0.525 and a relative viability (NCI-H520; first compound 0.01581 µM) of 0.572. The relative viability (NCI-H520; first compound 0.05 µM) was 0.552, the relative viability (NCI-H520; first compound 0.1581 µM) was 0.579 and the relative viability (NCI-H520; first compound 0.5 µM) was 0.61. The relative viability (UMC-11; first compound 0.005 µM) was 0.807, the relative viability (UMC-11; first compound 0.01581 µM) was 0.698 and the relative viability (UMC-11; first compound 0.05 µM) was 0.718. It also gave a relative viability (UMC-11; first compound 0.1581 µM) of 0.619, a relative viability (UMC-11; first compound 0.5 µM) of 0.755 and a relative viability (NCI-H1793; first compound 0.005 µM) of 0.643. For the same compound, the relative viability (NCI-H1793; first compound 0.01581 µM) was 0.854, the relative viability (NCI-H1793; first compound 0.05 µM) was 1.04 and the relative viability (NCI-H1793; first compound 0.5 µM) was 0.999. It also gave a relative viability (NCI-H322M; first compound 0.005 µM) of 0.586, a relative viability (NCI-H322M; first compound 0.01581 µM) of 0.621 and a relative viability (NCI-H322M; first compound 0.05 µM) of 0.588. It also gave a relative viability (NCI-H322M; first compound 0.1581 µM) of 0.635, a relative viability (NCI-H322M; first compound 0.5 µM) of 0.602 and a relative viability (NCI-H2405; first compound 0.005 µM) of 1.05. The relative viability (NCI-H2405; first compound 0.01581 µM) was 1.13, the relative viability (NCI-H2405; first compound 0.05 µM) was 1.09 and the relative viability (NCI-H2405; first compound 0.1581 µM) was 1.01. The relative viability (NCI-H2405; first compound 0.5 µM) was 0.792, the relative viability (NCI-H1650; first compound 0.005 µM) was 0.362 and the relative viability (NCI-H1650; first compound 0.01581 µM) was 0.342. For the same compound, the relative viability (NCI-H1650; first compound 0.05 µM) was 0.384, the relative viability (NCI-H1650; first compound 0.1581 µM) was 0.309 and the relative viability (NCI-H1650; first compound 0.5 µM) was 0.354. It also gave a relative viability (PC-14; first compound 0.005 µM) of 0.124, a relative viability (PC-14; first compound 0.01581 µM) of 0.138 and a relative viability (PC-14; first compound 0.05 µM) of 0.129. It also gave a relative viability (PC-14; first compound 0.1581 µM) of 0.155, a relative viability (PC-14; first compound 0.5 µM) of 0.115 and a relative viability (H3255; first compound 0.005 µM) of 0.545. It also gave a relative viability (H3255; first compound 0.01581 µM) of 0.563, a relative viability (H3255; first compound 0.05 µM) of 0.583 and a relative viability (H3255; first compound 0.1581 µM) of 0.55. The relative viability (H3255; first compound 0.5 µM) was 0.547, the relative viability (SW 900; first compound 0.005 µM) was 0.463 and the relative viability (SW 900; first compound 0.01581 µM) was 0.465. The relative viability (SW 900; first compound 0.05 µM) was 0.507, the relative viability (SW 900; first compound 0.5 µM) was 0.493 and the relative viability (NCI-H2347; first compound 0.005 µM) was 0.4. For the same compound, the relative viability (NCI-H2347; first compound 0.01581 µM) was 0.458, the relative viability (NCI-H2347; first compound 0.05 µM) was 0.388 and the relative viability (NCI-H2347; first compound 0.1581 µM) was 0.427. The relative viability (NCI-H2347; first compound 0.5 µM) was 0.487, the relative viability (201T; first compound 0.005 µM) was 0.314 and the relative viability (201T; first compound 0.01581 µM) was 0.319. It also gave a relative viability (201T; first compound 0.05 µM) of 0.351, a relative viability (201T; first compound 0.1581 µM) of 0.351 and a relative viability (201T; first compound 0.5 µM) of 0.367. It also gave a relative viability (COR-L23; first compound 0.005 µM) of 0.193, a relative viability (COR-L23; first compound 0.01581 µM) of 0.192 and a relative viability (COR-L23; first compound 0.05 µM) of 0.203. For the same compound, the relative viability (COR-L23; first compound 0.1581 µM) was 0.206 and the relative viability (COR-L23; first compound 0.5 µM) was 0.199.

Source: the supplement of paper PMC10307832
